# Experimental data from patent publication US6344454B1, “Nonsteroidal gestagens” (Schering Aktiengesellschaft, priority 1997, dated 2002).
# How the values were obtained:
# gestagen receptor = biological target: T1, gestagen receptor (Oryctolagus cuniculus, UniProt P06186); test: gestagen receptor bonding test (cytosol from rabbit uterus homogenate, 3H-progesterone as reference substance); assay type: binding
# T1 construct: using cytosol from rabbit uterus homogenate; from tissue; host or cells: rabbit uterus cytosol
# T1 sequence (P06186 1-930): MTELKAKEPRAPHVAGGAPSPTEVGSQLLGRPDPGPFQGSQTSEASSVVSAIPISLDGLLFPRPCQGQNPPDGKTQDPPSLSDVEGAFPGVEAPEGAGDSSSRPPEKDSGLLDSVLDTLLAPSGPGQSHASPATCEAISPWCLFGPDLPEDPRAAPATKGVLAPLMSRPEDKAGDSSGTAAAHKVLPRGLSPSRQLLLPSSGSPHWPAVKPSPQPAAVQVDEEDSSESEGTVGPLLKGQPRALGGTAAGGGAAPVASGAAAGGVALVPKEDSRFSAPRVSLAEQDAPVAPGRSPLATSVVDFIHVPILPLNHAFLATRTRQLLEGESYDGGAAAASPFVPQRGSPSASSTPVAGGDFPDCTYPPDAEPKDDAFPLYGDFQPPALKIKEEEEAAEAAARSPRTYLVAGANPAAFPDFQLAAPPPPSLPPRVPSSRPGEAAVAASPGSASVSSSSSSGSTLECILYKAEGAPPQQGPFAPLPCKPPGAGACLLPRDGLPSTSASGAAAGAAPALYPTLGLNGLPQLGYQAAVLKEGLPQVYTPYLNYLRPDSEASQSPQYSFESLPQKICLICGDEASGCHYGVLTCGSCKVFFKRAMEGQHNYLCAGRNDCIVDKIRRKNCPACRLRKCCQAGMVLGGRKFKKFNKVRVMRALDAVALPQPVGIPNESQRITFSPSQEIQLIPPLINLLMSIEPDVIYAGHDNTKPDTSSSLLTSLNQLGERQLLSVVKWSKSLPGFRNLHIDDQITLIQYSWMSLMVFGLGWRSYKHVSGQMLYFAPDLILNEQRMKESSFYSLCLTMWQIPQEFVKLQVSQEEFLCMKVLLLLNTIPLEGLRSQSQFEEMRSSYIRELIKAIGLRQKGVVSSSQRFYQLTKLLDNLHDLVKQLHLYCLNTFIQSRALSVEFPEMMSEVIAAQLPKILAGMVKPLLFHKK
# From the text: In the gestagen receptor bonding test on the gestagenic action using cytosol from rabbit uterus homogenate and from ^3H-progesterone as a reference substance, the new compounds show a strong to very strong affinity to the gestagen receptor (see Table 1).
smiles,measurement,setting,value
CC(C)(CC(O)(CNc1ccc2c(c1)COC2=O)C(F)(F)F)c1ccccc1 (racemic) [Example 65],Competition Factor (Reference Substance 3H-Progesterone),gestagen receptor,0.17
same,melting point,,154 °C
CC(C)Oc1ccc(F)cc1C(C)(C)CC(O)(C(=O)Nc1ccc2c(c1)COC2=O)C(F)(F)F (racemic) [Example 155],melting point,,153 to 154 °C
"CC(C)(CC(O)(C(=O)Nc1ccc2c(c1)COC2=O)C(F)(F)F)c1cccs1 (single isomer, unassigned; (+)) [Example 103 (+)-2-thienyl, (+)-5-[2-hydroxy-4-methyl-4-(2-thienyl)-2-trifluoromethyl-valeroylamino]-phthalide]",melting point,,166 °C
"CC(CC(O)(C(=O)Nc1ccc([N+](=O)[O-])c(C(F)(F)F)c1)C(F)(F)F)c1ccccc1 (stereo not shown) [(*) (Melting point 141-142° C.), reference compound]",Competition Factor (Reference Substance 3H-Progesterone),gestagen receptor,17
"CC(CC(O)(C(=O)Nc1ccc([N+](=O)[O-])c(C(F)(F)F)c1)C(F)(F)F)c1ccccc1 (stereo not shown) [(*) (Melting point 161° C.), reference compound]",Competition Factor (Reference Substance 3H-Progesterone),gestagen receptor,2.0
"COc1cccc(C(C)(C)CC(O)(C(=O)Nc2ccc3c(c2)COC3=O)C(F)(F)F)c1 (stereo not shown) [Example 4, 5-[2-Hydroxy-4-(3-methoxyphenyl)-4-methyl-2-trifluoromethyl-valeroylamino]-phthalide]",melting point,,129 to 130 °C
"Cc1noc(=O)c2ccc(NC(=O)C(O)(CC(C)(C)c3ccccc3)C(F)(F)F)cc12 (stereo not shown) [Example 42, 6-(2-Hydroxy-4-methyl-4-phenyl-2-trifluoromethyl-valeroyl-amino)-4-methyl-2,3-benzoxazin-1-one]",melting point,,172 to 173 °C
Cc1noc(=O)c2ccc(NC(=O)C(O)(CC(C)(C)c3ccccc3)C(F)(F)F)cc12 (stereo not shown) [Example 106],Competition Factor (Reference Substance 3H-Progesterone),gestagen receptor,0.55
same,melting point,,123 °C
